Experimental data taken from patent US5420289A, “Substituted indole-, indene-, pyranoindole- and tetrahydrocarbazole-alkanoic acid derivatives as inhibitors of PLA2 and lipoxygenase” (American Home Products Corporation, priority 1993, dated 1995).

Tests used:
[1] = biological target: T1, human platelet PLA2 (Homo sapiens, UniProt P14555); assay: in vitro isolated phospholipase A2 assay, human platelet PLA2 (Example 74); assay type: biochemical; design: dose or concentration left out as unconfirmed; settings: read-out: % Inhibition, HP (human platelet)
T1 construct: Semi-purified human platelet acid extract PLA2; from tissue; host or cells: human platelets (semi-purified acid extract)
T1 sequence (P14555 21-144): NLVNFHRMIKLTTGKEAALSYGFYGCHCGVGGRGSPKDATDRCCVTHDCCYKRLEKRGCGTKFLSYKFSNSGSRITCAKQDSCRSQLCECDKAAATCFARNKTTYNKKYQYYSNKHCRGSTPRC
Method: (§1) The compounds of the invention are tested in an in vitro isolated phospholipase A2 assay to determine the ability of the test compounds to inhibit the release of arachidonic acid from an arachidonic acid-containing substrate by the action of phospholipase A2 enzyme from human and non-human sources.
(§2) This assay is carried out as follows:
(§3) Into a 15 mL polypropylene tube are added the following:
(§4) ^6 Two human PLA2 enzymes are used:
a) Semi-purified human platelet acid extract PLA2 (in 10 mM
sodium acetate buffer, pH 4.5). Remove protein precipitate by
centrifugation at about 2200 rpm for 10 minutes.
(§5) Incubate the 100mL reaction mixture for 10 minutes at 37° C. in a shaking water bath. The reaction is terminated by the addition of 2 mL tetrahydrofuran, followed by vortexlag. NH2 columns (100 mg/mL--Analytichem International) are conditioned with 0.5 mL tetrahydrofuran followed by 0.5 mL tetrahydrofuran/water (2 mL:0.1 mL, v/v).
(§6) The sample is loaded onto the columns and slowly drawn through them. The hydrolyzed arachidonic acid retained in the columns is eluted therefrom with 1 mL tetrahydrofuran/glacial acetic acid (2%). The arachidonic acid is transferred to scintillation vials and quantitated by b-counting analysis. A "total counts" sample is prepared by pipetting […] ^3 H-arachidonate E. coli directly into a scintillation vial to which is added 1 mL tetrahydrofuran. 10 mL aquasol (scintillation cocktail) is added to all samples. [formula]

[2] = biological target: T2, human synovial fluid PLA2 (Homo sapiens, UniProt P14555); assay: in vitro isolated phospholipase A2 assay, human synovial fluid PLA2 (Example 74); assay type: biochemical; design: inhibition / % Inhibition, HSF (human synovial fluid): dose or concentration left out as unconfirmed; settings: read-out: % Inhibition, HSF (human synovial fluid)
T2 sequence (P14555 21-144): T1 sequence (P14555 21-144)
Method: as §1, §2, §3, §4
b) Purified human synovial fluid.
as §5, §6

[3] = test system: 5-lipoxygenase in human whole blood; assay: inhibition of 5-lipoxygenase in human whole blood (Example 79); assay type: cell-based; settings: for % Inhibition of LTB4: 25 μM; for IC50: human whole blood, read-out: IC50 (inhibition of LTB4)
Method: The assay of this Example measures the ability of the compounds tested to inhibit 5-lipoxygenase in human whole blood.
as §2
Blood is obtained in 50-100 ml quantities from male donors. White blood cell counts and differentials are made. Two ml of blood are placed in a 15 ml polypropylene test tube. Compounds are solubilized in dimethylsulfoxide and diluted 1:10 in 10% bovine serum albumin in phosphate buffered saline, pH 7.4 resulting in a final dimethylsulfoxide concentration of 0.1% in the blood. Then, compounds are added to the blood in a shaking water bath at 37° C. for 10 minutes prior to the addition of […] calcium ionophore (A23187; Sigma). After ionophore administration, whole blood samples are mixed and incubated for 20 minutes at 37° C. in a shaking water bath. Incubation is terminated by placing samples in an ice bath and immediately adding ethylene glycol-bis-(b-aminoethyl ether)-N,N,N',N'-tetraacetic acid (10 mM). Samples are mixed and centrifuged at 1200 × g for 15 minutes at 4° C. Preparation of samples for evaluation by RIA or ELISA is carried out by the following protocol. Plasma is removed from sample tubes, placed in 15 ml polypropylene test tubes containing 8 ml methanol, and then vortexed to precipitate protein. Samples are stored at -70° C. overnight. The next day, samples are centrifuged at 200 × g for 15 minutes at 4° C. to pellet the precipitate. Samples are dried in a Savant speed vac concentrator, reconstituted to original volume with ice cold RIA or ELISA buffer, and stored at -70° C. until assayed. The assay for eicosanoids (LTB4, T×B2, and PGE2) is performed as described by the manufacturer of the [^3 H]-RIA kit or ELISA kit (LTB4 -Amersham, TxB2 and PGE2 - Caymen Chemical).
The total eicosanoid level in 2 ml of blood is calculated and reported as ng/10^6 neutrophils. […] Drug effects are expressed as percent change from control values.
Compounds tested in vitro are solubilized in dimethylsulfoxide and diluted 1:10 in 10% bovine serum albumin in phosphate buffer saline resulting in a final dimethylsulfoxide concentration of 0.1% i n the blood.

Compound | inhibition [1] | inhibition [2] | % Inhibition of LTB4 [3] | IC50 [3]
Cc1c(CC(=O)NO)c2cc(OCc3nc4ccccc4s3)ccc2n1Cc1ccc(Cl)cc1 [Example 46, 5-(2-Benzothiazolylmethoxy)-1-[(4-chlorophenyl)methyl]-N-hydroxyl-2-methyl-1H-indole-3-acetamide] | 13% | 48% | 30% | 14.9 µM
CONC(=O)Cc1c(C)n(Cc2ccc(Cl)cc2)c2ccc(OCc3nc4ccccc4s3)cc12 [Example 47, 5-(2-Benzothiazolylmethoxy)-1-[(4-chlorophenyl)methyl]-N-methoxy-2-methyl-1H-indole-3-acetamide hemihydrate.] | 5% | 2% | 31% | –
Cc1c(CC(=O)N(C)O)c2cc(OCc3nc4ccccc4s3)ccc2n1Cc1ccc(Cl)cc1 [Example 49, 5-(2-Benzothiazolylmethoxy)-1-[(4-chlorophenyl)methyl]N-hydroxyl-N,2-dimethyl-1H -indole-3-acetamide] | 6% | 4% | 61% | 12.3 µM
Cc1c(CC(=O)O)c2cc(OCc3nc4ccccc4s3)ccc2n1Cc1ccccc1 [Example 51, 5-(2-Benzothiazolylmethoxy)-1-(phenylmethyl)-2-methyl-1H-indole-3-acetic acid] | 41% | 88% | 5% | –
CSc1ccc(Cn2c(C)c(CC(=O)O)c3cc(OCc4nc5ccccc5s4)ccc32)cc1 [Example 54, 5-(2-Benzothiazolylmethoxy)-1-[[4-(methylthio)phenyl]methyl]-2-methyl-1H-indole-3-acetic acid] | 2% | 44% | 11% | –
Cc1c(CCO)c2cc(OCc3csc(-c4ccccc4)n3)ccc2n1Cc1ccccc1 [Example 55, 5-[(2-Phenyl-4-thiazolyl)methoxy]-1-(phenylmethyl)-2-methyl-1H-indole-3-ethanol] | 13% | 4% | 19% | –
CC(=O)OCCc1c(C)n(Cc2ccccc2)c2ccc(OCc3csc(-c4ccccc4)n3)cc12 [Example 56, 5-[(2-Phenyl-4-thiazolyl)methoxy]-1-(phenylmethyl)-2-methyl-1H-indole-3-ethanol acetate ester] | 2% | – | 2% | –
COc1cccc(Cn2c(C)c(CC(=O)O)c3cc(OCc4csc(-c5ccccc5)n4)ccc32)c1 [Example 60, 5-[(2-Phenyl-4-thiazolyl)methoxy)-1-[[(3-methoxy)phenyl]methyl]-2-methyl-1H-indole-3-acetic acid] | 3% | 84% | 35% | –
Cc1c(CC(=O)O)c2cc(OCc3csc(-c4ccccc4)n3)ccc2n1CCCc1ccccc1 [Example 63, 5-[(2-Phenyl-4-thiazolyl)methoxy]-1-(3-phenylpropyl)-2methyl-1H-indole-3-acetic acid] | 2% | 34% | – | –
CCOC(=O)Cc1c(C)n(Cc2csc(-c3ccc(Cl)cc3)n2)c2ccc(OCc3csc(-c4ccccc4)n3)cc12 [Example 64, 5-[(2-Phenyl-4-thiazolyl)methoxy]-1-[[2-(4-chlorophenyl)-4-thiazolyl]methyl]-2-methyl-1H-indole-3-acetic acid ethyl ester] | 1% | 4% | – | –
Cc1c(CC(=O)O)c2cc(OCc3csc(-c4ccccc4)n3)ccc2n1Cc1csc(-c2ccc(Cl)cc2)n1 [Example 65, 5-[(2-Phenyl-4-thiazolyl)methoxy]-1-[[2-(4-chlorophenyl)-4-thiazolyl]methyl]-2-methyl-1H-indole-3-acetic acid] | 85% | 89% | 22% | –
CCOC(=O)Cc1c(C)n(Cc2ccc3ccccc3c2)c2ccc(OCc3csc(-c4ccccc4)n3)cc12 [Example 66, 5-[(2-Phenyl-4-thiazolyl)methoxy]-1-(2-naphthalenylmethyl)-2-methyl-1H-indole-3acetic acid ethyl ester] | 1% | 6% | – | –
CCOC(=O)Cc1c(C)n(Cc2ccc(Cl)cc2)c2ccc(OCc3csc(-c4ccc(Cl)cc4)n3)cc12 [Example 68, 5-[[2-(4-Chlorophenyl)-4-thiazolyl]methoxy]-1-[(4-chlorophenyl)methyl]-2-methyl-1H-indole-3-acetic acid ethyl ester] | 2% | 0% | – | –
Cc1c(CC(=O)O)c2cc(OCc3csc(-c4ccc(Cl)cc4)n3)ccc2n1Cc1ccc(Cl)cc1 [Example 69, 5-[[2-(4-Chlorophenyl)-4-thiazolyl]methoxy]-1-[(4chlorophenyl)methyl]-2-methyl-1H-indole-3-acetic acid] | 8% | 54% | – | –
Cc1c(CC(=O)O)c2cc(OCc3coc(-c4ccccc4)n3)ccc2n1Cc1ccccc1 [Example 71, 5-[(2-Phenyl-4-oxazolyl)methoxy]-1-(phenylmethyl)-2-methyl-1H-indole-3-acetic acid hemihydrate.] | 44% | 91% | – | –
